In US20240082281A1, “ANTI-INFLAMMATORY PHYTONUTRIENTS FOR USE IN THE TREATMENT OR PREVENTION OF SYNOVITIS” (SOCIÉTÉ DES PRODUITS NESTLÉ S.A., priority 2013, published 2024):

How the values were obtained:
PGE2 = PGE2 in guinea pig serum by competitive ELISA; type: in vivo; conditions: in diet 31 weeks; week 35; vs control group
Description: 6 h fasting blood was obtained in the morning, under ketamine/xylazine tranquilization, at the superficial veins at the ears, each 6 weeks: W4 (=TO), W10, W16, W22, W28. At W35, blood was collected by intracardiac puncture just before euthanasia, under general anesthesia.
PGE2 was measured in guinea pig serum using a competitive ELISA kit (Arbor Assays, USA).
The results (mean±SD) were calculated for each parameter. Following a normality test, a parametric ANOVA with Dunnett's post-test or Pearson correlation was performed on all the experiments. *p<0.05; **<0.01; ***p<0.001.

[1] = test system: Dunkin-Hartley guinea pigs; assay: Spontaneous osteoarthritis in Dunkin-Hartley guinea pigs: histological OA score and synovial score (OARSI); type: in vivo, guinea pig; conditions: in diet 31 weeks (oleuropein 0.025%, rutin 0.5%, curcumin 0.25%); week 35; vs control group; p<0.01
Description: An in vivo study of spontaneous development of osteoarthritis in Dunkin-Hartley guinea pigs was performed. Sixty-five male Dunkin-Hartley guinea-pigs aged 3 weeks were obtained from Charles River Laboratories (Paris). Animals were housed 5 per cage in solid bottom cages and fed with standard guinea-pig diet and water ad libitum. All animals were allowed one week for acclimatization to housing conditions prior to phytonutrients administration. PVC pipes were added to the cages to improve housing conditions and minimize stress.
Substantially purified oleuropein (>90%) was purchased from Extrasynthese (Genay, France). Substantially purified rutin (>94%) was purchased from Sigma-Aldrich (Buchs, Switzerland).
Oleuropein, rutin and curcumin were integrated in the diet. […] Food intake was controlled at W9, W15, W21, W26 and W34 by weighing daily quantities of food added and remaining. […]
Paraffin embedded right knees were cut with a microtome (Leica) in 6 μm sections, in the central area not covered by meniscus, following the Cushin plane, as recommended by OARSI. […] Each compartment of the section (tibial median, tibial lateral, femoral median and femoral lateral) was scored by two blinded trained experts following OARSI recommendation and to assess the global cartilage score, each compartment score was added. […]
The results (mean±SD) were calculated for each parameter. […]

MMP-13 = MMP-13 mRNA expression (real-time PCR, relative to GAPDH) in bovine primary chondrocytes in alginate beads; type: cell-based, Bos Taurus; conditions: 1.5 μM each, 3 days
Description: (§1) An in vitro study of bovine primary chondrocytes in alginate beads was performed. Substantially purified oleuropein (>98%) was purchased from Extrasynthese (Genay, France). Substantially purified hydroxytyrosol (>98%) was purchased from Extrasynthese (Genay, France). Substantially purified quercetin (>97%) was purchased from HWI Analytik GmbH (Ruelzheim, Germany).
(§2) The foot of a young cow was washed to remove soil. The skin was removed from the foot. The articulation was opened transversally. Intra articular ligaments were transected. The opened articulation was washed with phosphate buffered saline. With a scalpel blade, full thickness slices of cartilage were dissected out and collected in DMEM high glucose with 10 mM Hepes and 1% Penicillin-Streptomycin. Slices of cartilage were washed in DMEM high glucose with 10 mM Hepes and 1% Penicillin-Streptomycin. […]
(§3) Total RNA was isolated from a pool of 40 beads and isolated using RNeasy kit from Qiagen. cDNA was obtained by reverse transcription of RNA with the Primescript 1st strand cDNA Synthesis kit from Takara. mRNA expression of ADAMTS-5, COX-2, MMP-13 and GAPDH were quantified in real-time PCR (SYBR Green).
(§4) Data were expressed as fold change in gene expression compared to negative control (cells cultured in complete medium).
(§5) Data was expressed as median±S.E.Median (2 experiments of 3 replicates each). […]

ADAMTS-5 = ADAMTS-5 mRNA expression (real-time PCR, relative to GAPDH) in bovine primary chondrocytes in alginate beads; type: cell-based, Bos Taurus; conditions: 1.5 μM each, 3 days
Description: as §1, §2, §3, §4, §5

COX-2 = COX-2 mRNA expression (real-time PCR, relative to GAPDH) in bovine primary chondrocytes in alginate beads; type: cell-based, Bos Taurus; conditions: 1.5 μM each, 3 days
Description: as §1, §2, §3, §4, §5

[2] = test system: Primary osteoblasts from the calvaria of newborn Wistar rats; assay: Alkaline phosphatase (ALP) activity of primary osteoblasts; type: cell-based, rat; conditions: day 15; 1 μM OLP, 1 μM HTy, 10^−9 M 1,25(OH)2D3; vs C−
Description: Alkaline phosphatase activity of osteoblasts and potentiation of effect by vitamin D were investigated. Primary osteoblasts were isolated from the calvaria of newborn Wistar rats by enzymatic digestion as described by […] et al. in 2004. During all experiments, cells were maintained in α-minimal essential medium with 10% heat-inactivated fetal bovine serum and 1% penicillin/streptomycin under conditions of 5% CO2 and 37° C. Cells were seeded on Coll-1-coated 96-well plates at a density of 3500 cells/well or in 24-well plates at a density of 3×10^4 cells/well and cultured for 2 days in α-MEM to reach confluence. Cells were then exposed to different conditions: minimal medium (C-), minimal medium containing 50 μg/ml ascorbic acid, 5 mM β-glycerophosphate (C+; optimized medium), and minimal medium supplemented with 1 μM oleuropein (OLP) and/or 1 μM hydroxytyrosol (HTy) and/or 10^-9 M 1,25 dihydroxivitamin […] dissolved in dimethylsulfoxide (DMSO) and 1,25(OH)2D3 was dissolved in ethanol. […] Enzymatic activity of alkaline phosphatase (ALP) was measured kinetically on Treatment Days 0, 5, 9, 12 and 15. […] Absorbance was measured at 405 nm and 30° C., and every 2 min 30 s for 30 min using a VarioSklan Flash microplate reader. ALP activity was expressed as micromoles of p-NPP per hour per milligram of protein. […] Data were expressed as mean±SEM. […]. […]

[3] = disease conditions (presence of IL1a 10 ng/ml), vs IL1a
[4] = normal conditions (absence of IL1a), vs CTL−

COc1cc(/C=C/C(=O)CC(=O)/C=C/c2ccc(O)c(OC)c2)ccc1O [curcumin]
PGE2 levels in plasma/serum (PGE2): only non-significant effect
total OA score (histological cartilage score) [1]: decreasing cartilage degradation and histological OA score

O=c1c(O)c(-c2ccc(O)c(O)c2)oc2cc(O)cc(O)c12 [quercetin]
MMP-13 mRNA expression relative to GAPDH (MMP-13; [3]): decrease expression of MMP-13
MMP-13 mRNA expression relative to GAPDH (MMP-13; [4]): decrease expression of MMP-13
ADAMTS-5 mRNA expression relative to GAPDH (ADAMTS-5; [3]): decrease expression of ADAMTS-5
ADAMTS-5 mRNA expression relative to GAPDH (ADAMTS-5; [4]): decrease expression of ADAMTS-5
COX-2 mRNA expression relative to GAPDH (COX-2; [3]): decrease expression of COX-2
COX-2 mRNA expression relative to GAPDH (COX-2; [4]): can reduce expression of COX-2

C=C1/C(=C\C=C2/CCC[C@]3(C)[C@@H]([C@H](C)CCCC(C)(C)O)CC[C@@H]23)C[C@@H](O)C[C@@H]1O [vitamin D3, 1,25 dihydroxivitamin D3]
alkaline phosphatase (ALP) activity / osteoblast activity [2]: small but statistically significant increase
